Experimental data from paper PMC8291587, “Guanidine Derivatives: How Simple Structural Modification of Histamine H3R Antagonists Has Led to the Discovery of Potent Muscarinic M2R/M4R Antagonists” (ACS Chemical Neuroscience, 2021).

Experiments:
M2R/M3R = test: Ex vivo screening of muscarinic M2R/M3R antagonists on isolated guinea pig ileum (methacholine-induced contraction); settings: methacholine as agonist
Description: Another group of guinea pig intestinal receptors able to regulate smooth muscle contraction is that of the muscarinic receptors, including M2R and M3R. All compounds were tested on the muscarinic receptors using the same animal model. This approach is similar to measuring histamine H1R antagonist activity. Methacholine was used as a receptor agonist, while 1,1-dimethyl-4-diphenylacetoxypiperidinium iodide (4-DAMP) was used as a reference M3R antagonist. As methacholine is not selective according to M2R and M3R, it is not possible to precisely specify which one was responsible for the effect observed on the tissue preparations. Some authors often attribute the results to the minor M3R subtype (gpM2R:M3R = 4:1 or 5:1), which is generally associated with the contractions,[38] but such an overinterpretation may be misleading, as indicated by our further hM1R-hM5R radioligand binding assay results shown in Table 2. […] These findings partially explain the influence of ADS10227 on the contractility of guinea pig ileum following electrical stimulation. […] In subsequent studies, we tried to clarify this.
Male guinea pigs, weighing 300–400 g, were euthanized by a blow to the neck. A 20–30 cm length of the distal ileum, apart from the terminal 5 cm, was rapidly removed and placed in phosphate buffer at room temperature (pH 7.4) containing (mM) NaCl (136.9), KCl (2.6), KH2PO4 (1.47), Na2HPO4 (9.58), and indomethacin (1 × 10^–6 mol/L)). The intraluminal content was rinsed, and the isolated intestine was cut into 1.5–2 cm segments. The preparations were mounted isotonically in a 20 mL organ bath filled with Tyrode’s buffer: composition (mM) NaCl (137), KCl (2.7), MgCl2·6H2O (1.0), CaCl2 (1.8), NaH2PO4·H2O (0.4), NaHCO3 (11.9), glucose (5.61), and indomethacin (3 × 10^–7 mol/L). The solution was continuously bubbled with a 95% O2:5% CO2 mixture and maintained at 37 °C under a constant load of 0.5 g (Hugo Sachs Hebel–Messvorsatz (Tl-2)/HF-modem; Hugo Sachs Elektronik, Hugstetten, Germany) connected to a pen recorder (Kipp & Zonen BD41, Delft, Holland). During an equilibration period of 40 min, Tyrode’s buffer was changed every 10 min. The first cumulative concentration–response curve was determined for methacholine (10 nM to 3 mM) at increasing concentrations spaced by 3- or 3.3-fold. The second to the fourth (or fifth) curves were measured in the presence of an increasing concentration of antagonist (incubation time 20 min). The pA2 values were calculated according to Arunlakshana and Schild.[37] Statistical analysis was carried out with the Students’ t test. In all tests, a p < 0.05 was considered statistically significant.

H1R [1] = biological target: T1, H1R (Cavia porcellus, UniProt P31389); test: Ex vivo screening of histamine H1R antagonists on guinea pig ileum, variant with 0.05 μM atropine; settings: isolated guinea pig ileum, histamine as agonist, read-out: H1R+atropine pA2 gpi ± sem (converted)
T1 construct: from tissue; host or cells: isolated distal ileum of male guinea pigs
Description: (§1) The second histamine receptor located in the guinea pig ileum is H1R. […] The H1R antagonistic effect was measured on isolated guinea pig ileum stimulated to contract by histamine.[37] To assess and exclude the influence of the ADS compounds on muscarinic receptors, two test variations were used: one with the addition of 0.05 μM atropine and one without.
(§2) Male guinea pigs, weighing 300–400 g, were euthanized by a blow to the neck. A 20–30 cm length of the distal ileum, apart from the terminal 5 cm, was rapidly removed and placed in phosphate buffer at room temperature (pH 7.4) containing (mM) NaCl (136.9), KCl (2.6), KH2PO4 (1.47), Na2HPO4 (9.58), and indomethacin (1 × 10^–6 mol/L). The intraluminal content was rinsed, and the isolated intestine was cut into 1.5–2 cm segments. The preparations were mounted isotonically in a 20 mL organ bath filled with Krebs buffer: composition (mM) NaCl (118), KCl (5.6), MgSO4 (1.18), CaCl2 (2.5), NaH2PO4·H2O (1.28), NaHCO3 (25), glucose (5.55), and indomethacin (3 × 10^–7 mol/L). […] The solution was continuously bubbled with a 95% O2:5% CO2 mixture and maintained at 37 °C under a constant load of 0.5 g (Hugo Sachs Hebel–Messvorsatz (Tl-2)/HF-modem; Hugo Sachs Elektronik, Hugstetten, Germany) connected to a pen recorder (Kipp & Zonen BD41, Delft, Holland). During an equilibration period of 40 min, Krebs buffer was changed every 10 min. The first cumulative concentration–response curve was determined for histamine (10 nM to 10 mM) at increasing concentrations spaced by 3- or 3.3-fold. The second to the fourth (or fifth) curves were measured in the presence of an increasing concentrations of antagonist (incubation time 10 min). The pA2 values were calculated according to Arunlakshana and Schild.[37] Statistical analysis was carried out with the Students’ t test. In all tests, a p < 0.05 was considered statistically significant.

[2] = tested on: electrically stimulated guinea pig ileum; test: Decrease of contractility in electrically stimulated guinea pig ileum (-log EC50 determination); settings: electrically stimulated guinea pig ileum; for EC50: Cavia porcellus, read-out: Decrease of contractility (-logEC50 ± sem) (converted)
Description: A standard ex vivo assay based on the relaxant response of histamine H3R agonists to electrically driven guinea pig ileum was used to test the influence of ADS compounds on the reduction of electrically evoked tissue contraction. […] The −log EC50 value for RAMH and ADS compounds were evaluated. […] Following this, we decided to evaluate the ADS series as potential M2R/M3R ligands on the isolated guinea pig ileum.
Male guinea pigs, weighing 300–400 g, were euthanized by a blow to the neck. A 20–30 cm length of the distal ileum, apart from the terminal 5 cm, was rapidly removed and placed in phosphate buffer at room temperature (pH 7.4) containing (mM) NaCl (136.9), KCl (2.6), KH2PO4 (1.47), Na2HPO4 (9.58), and indomethacin (1 × 10^–6 mol/L)). The intraluminal content was rinsed, and the isolated intestine was cut into 1.5–2 cm segments. The preparations were mounted between two platinum electrodes isotonically in a 20 mL organ bath filled with Krebs buffer: composition (mM) NaCl (118), KCl (5.6), MgSO4 (1.18), CaCl2 (2.5), NaH2PO4·H2O (1.28), NaHCO3 (25), glucose (5.55), and indomethacin (3 × 10^–7 mol/L). The solution was continuously bubbled with a 95% O2:5% CO2 mixture and maintained at 37 °C under a constant load of 1.0 g (Hugo Sachs Hebel–Messvorsatz (Tl-2)/HF-modem; Hugo Sachs Elektronik, Hugstetten, Germany) connected to a pen recorder (Kipp & Zonen BD41, Delft, Holland). During an equilibration period of 60 min, Krebs buffer was changed every 10 min. Following this, the preparations were continuously stimulated at 15–20 V, at a frequency of 0.1 Hz for a duration of 0.5 ms, with rectangular-wave electrical pulses (Grass Stimulator S-88; Grass Instruments Co., Quincy, Massachusetts, USA). […] Cumulative concentration–response curve was determined to RAMH or tested agonist (10 nM to 10 mM) at increasing concentrations spaced by 3- or 3.3-fold. The agonist potency is expressed as pD2 value (−log EC50) ± sem.

hH3R = biological target: T2, hH3R (Homo sapiens, UniProt Q9Y5N1); test: hH3R radioligand displacement binding assay ([3H]-Nα-methylhistamine, HEK-293 cell membranes); settings: for Ki: [3H]-Nα-methylhistamine, HEK-293 membranes, read-out: hH3R -log(Ki) ± sem (converted)
T2 construct: expressed in transfected cells; membrane fractions
Description: [^3H]-N^α-Methylhistamine was used as a radiolabeled ligand.
The radioligand displacement binding assay was performed in membrane fractions of HEK-293 cells stably expressing hH3R. Cell cultivation and membrane preparation were performed according to Kottke et al.[43] […] The total assay volume was set to 200 μL. The compounds were tested in several appropriate concentrations between 100 μM and 0.1 nM. Pipetting was partly done by Freedom Evo (Tecan). […] The membrane fraction (20 μg/well), test compounds, and radiolabeled ligand were incubated for 90 min at 25 °C while shaking. The bound radioligand was separated from free radioligand by filtration through GF/B filters pretreated with 0.3% (m/v) polyethylenimine using a cell harvester. Radioactivity was determined by liquid scintillation counting using a MicroBeta Trilux (PerkinElmer). The data were obtained in duplicates in at least three independent experiments. Nonspecific binding was subtracted from the raw data to calculate specific-binding values. The evaluation was performed with GraphPad Prism 6.1 (San Diego, CA, USA) using nonlinear regression (one-site competition with a logarithmic scale). The Ki values were calculated from the IC50 values using the Cheng–Prusoff equation.[44] The statistical calculations were performed on −log Ki. The mean values and 95% confidence intervals were transformed to nanomolar concentrations.

H1R [3] = biological target: T1, H1R; test: Ex vivo screening of histamine H1R antagonists on guinea pig ileum, variant without atropine; settings: isolated guinea pig ileum, histamine as agonist, read-out: H1R pA2 gpi ± sem (converted)
Description: as §1, §2

M2R = tested on: M2R; parameters: method as in PMID 11421251; settings: cited from earlier work

T2 sequence (Q9Y5N1 whole entry): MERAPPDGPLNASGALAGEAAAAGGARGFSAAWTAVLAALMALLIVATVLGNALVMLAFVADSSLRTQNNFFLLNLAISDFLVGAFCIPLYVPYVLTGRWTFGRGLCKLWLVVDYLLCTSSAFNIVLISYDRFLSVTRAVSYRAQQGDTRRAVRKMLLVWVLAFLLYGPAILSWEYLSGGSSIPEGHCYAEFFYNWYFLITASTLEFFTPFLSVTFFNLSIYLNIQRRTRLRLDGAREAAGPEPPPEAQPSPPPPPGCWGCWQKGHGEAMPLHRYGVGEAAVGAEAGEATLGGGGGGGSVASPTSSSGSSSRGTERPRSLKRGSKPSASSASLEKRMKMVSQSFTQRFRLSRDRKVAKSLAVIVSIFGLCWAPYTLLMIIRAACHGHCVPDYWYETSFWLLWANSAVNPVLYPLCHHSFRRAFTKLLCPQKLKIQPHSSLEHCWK
T1 sequence (P31389 whole entry): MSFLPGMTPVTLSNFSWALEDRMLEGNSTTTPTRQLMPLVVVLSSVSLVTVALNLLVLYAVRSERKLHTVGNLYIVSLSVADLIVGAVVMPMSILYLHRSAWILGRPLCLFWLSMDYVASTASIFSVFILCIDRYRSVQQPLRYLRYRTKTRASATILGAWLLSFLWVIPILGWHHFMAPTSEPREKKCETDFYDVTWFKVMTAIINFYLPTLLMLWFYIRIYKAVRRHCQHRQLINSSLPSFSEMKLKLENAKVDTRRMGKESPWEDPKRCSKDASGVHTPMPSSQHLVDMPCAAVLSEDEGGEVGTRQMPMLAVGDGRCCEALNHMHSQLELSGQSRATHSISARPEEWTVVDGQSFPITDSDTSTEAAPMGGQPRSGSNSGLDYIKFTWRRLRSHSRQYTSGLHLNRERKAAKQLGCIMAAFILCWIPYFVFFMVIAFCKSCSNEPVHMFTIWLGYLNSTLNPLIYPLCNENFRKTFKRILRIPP

Row | Kb (H1R [1]) | EC50 [2] | Ki (hH3R) | Kb (H1R [3]) | Compound | M2R/M3R pA2 gpi ± sem (M2R/M3R) | Kd (hH3R; radioligand used at 2 nM) | effective dose in the rodent cognition model lower than that known to increase heart rate in rats (M2R) | Decrease of contractility (-logEC50 ± sem) [2] | intrinsic activity (maximal response as fraction of maximal response of the system) ([2]; from concentration–response curves)
1 |  |  |  |  | C[N+]1(C)CCC(OC(=O)C(c2ccccc2)c2ccccc2)CC1.[I-] [4-DAMP, 1,1-dimethyl-4-diphenylacetoxypiperidinium iodide, reference compound] | 9.05 ±0.11 |  |  |  | 
2 | 120 nM | 724 nM | 1620 nM | 75.9 nM | [H]/N=C(\N)N(CCCCN1CCN(CC2CCC(COc3ccccc3)CC2)CC1)Cc1ccc(C(F)(F)F)cc1 (stereo not drawn) [ADS10207] | 5.68±0.15 |  |  |  | 
3 |  |  |  |  | CNCCc1cnc[nH]1 [[^3H]N^α-methylhistamine, reference compound] |  | 3.08 nM |  |  | 
4 | 97.7 nM | 575 nM | 1660 nM | 60.3 nM | N=C(N)N(CCCCN1CCN(Cc2ccc(Oc3ccccc3)cc2)CC1)Cc1ccc(C(F)(F)F)cc1 [ADS10210] | 5.83±0.14 |  |  |  | 
5 | 151 nM | 2290 nM | 1660 nM | 182 nM | N=C(N)N(CCCCN1CCN(Cc2ccc(COc3ccccc3)cc2)CC1)Cc1ccc(C(F)(F)F)cc1 [ADS10183] | 5.83±0.22 |  |  |  | 
6 |  |  |  |  | COc1ccc(S(=O)(=O)c2ccc(C3(C4CCN(C5CCN(C(=O)c6cccc(C)c6N)CC5)CC4)OCCO3)cc2)cc1 [SCH-217443] |  |  | 30 fold |  | 
7 |  |  |  |  | C[C@@H](N)Cc1c[nH]cn1 [RAMH, (R)(−)-α-methylhistamine, reference compound] |  |  |  | 7.70±0.07 | 0.82
8 | 100 nM | 3090 nM | 1350 nM | 105 nM | N=C(N)N(CCCCN1CCN(Cc2ccc(COc3ccccc3)cc2)CC1)Cc1ccccc1 [ADS10185] | 5.77±0.15 |  |  |  | 
9 | 166 nM | 832 nM | 2040 nM | 145 nM | N=C(N)N(CCCCN1CCN(C[C@H]2CC[C@H](COc3ccccc3)CC2)CC1)Cc1ccccc1 [ADS10283] | 6.02±0.07 |  |  |  | 
